Experimental findings from patent publication US8742110B2, “Spiroxazolidinone compounds” (Merck Sharp & Dohme Corp., priority 2010, dated 2014) are described below.

Structures can show the parent of a compound that is named as a salt.

The target of the assay is SSTR5 (Homo sapiens (Human), UniProt P35346). Kind of assay: SSTR5 binding assay. Particulars: CHO-K1 membranes expressing cloned human SSTR5. In a few lines:
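Competition binding on membranes from CHO-K1 cells stably expressing cloned human receptor, using radiolabeled somatostatin in 50 mM Tris-HCl pH 7.8 with EGTA, MgCl2 and protease inhibitors. Unlabeled compounds tested from 0.01 nM to 10,000 nM.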

Chain of SSTR5 (P35346 whole entry): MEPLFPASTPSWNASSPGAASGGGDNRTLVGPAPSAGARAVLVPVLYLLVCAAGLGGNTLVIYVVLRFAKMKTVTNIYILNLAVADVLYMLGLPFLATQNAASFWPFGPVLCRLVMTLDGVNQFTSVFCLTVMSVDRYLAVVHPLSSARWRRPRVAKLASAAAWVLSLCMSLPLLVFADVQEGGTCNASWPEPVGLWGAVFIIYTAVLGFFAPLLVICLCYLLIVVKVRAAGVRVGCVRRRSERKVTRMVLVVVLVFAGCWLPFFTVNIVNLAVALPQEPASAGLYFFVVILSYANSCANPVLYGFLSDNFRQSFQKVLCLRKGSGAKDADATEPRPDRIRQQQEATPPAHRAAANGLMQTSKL

A word on the IC50: it is the midpoint of a concentration-inhibition curve. A low value points to greater potency in that assay. In the case of `O=C(O)c1ccc(N2CC3(CCN(Cc4cc(C(F)(F)F)ccc4-c4ccc(F)nc4)CC3)OC2=O)cc1` [Example 4-10, 4-{8-[2-(6-Fluoropyridin-3-yl)-5-(trifluoromethyl)benzyl]-2-oxo-1-oxa-3,8-diazaspiro[4.5]dec-3-yl}benzoic acid, TFA salt], the concentration for half-maximal inhibition (IC50) amounted to 1.49 nM. Next, `CCOc1cc(CN2CCC3(CC2)CN(c2ccc(C(=O)O)cc2)C(=O)O3)c(-c2cc(F)c(F)cc2F)cc1C` [Example 4-11, 4-{8-[(4-Ethoxy-2′,4′,5′-trifluoro-5-methylbiphenyl-2-yl)methyl]-2-oxo-1-oxa-3,8-diazaspiro[4.5]dec-3-yl}benzoic acid, TFA salt]: 0.152 nM. Next, `CCOc1cc(CN2CCC3(CC2)CN(c2ccc(C(=O)O)c(C)c2)C(=O)O3)c(-c2ccc(F)c(F)c2F)cc1C` [Example 4-12, 4-{8-[(4-Ethoxy-2′,3′,4′-trifluoro-5-methylbiphenyl-2-yl)methyl]-2-oxo-1-oxa-3,8-diazaspiro[4.5]dec-3-yl}-2-methylbenzoic acid, TFA salt]: 0.188 nM; `CCOc1ccc(-c2ccc(F)c(F)c2F)c(CN2CCC3(CC2)CN(c2ccc(C(=O)O)c(C)c2)C(=O)O3)c1` [Example 4-13, 4-{8-[(4-Ethoxy-2′,3′,4′-trifluorobiphenyl-2-yl)methyl]-2-oxo-1-oxa-3,8-diazaspiro[4.5]dec-3-yl}-2-methylbenzoic acid, TFA salt]: 0.983 nM; `CCOc1cc(CN2CCC3(CC2)CN(c2ccc(C(=O)O)cc2)C(=O)O3)c(-c2ccc(F)nc2)cc1C` [Example 4-14, 4-{8-[5-Ethoxy-2-(6-fluoropyridin-3-yl)-4-methylbenzyl]-2-oxo-1-oxa-3,8-diazaspiro[4.5]dec-3-yl}benzoic acid, TFA salt]: 0.407 nM. Next, `O=C(O)c1ccc(N2CC3(CCN(Cc4cnc(-c5ccccc5)nc4-c4ccc(F)cc4)CC3)OC2=O)cc1` [Example 4-15, 4-(8-{[4-(4-Fluorophenyl)-2-phenylpyrimidin-5-yl]methyl}-2-oxo-1-oxa-3,8-diazaspiro[4.5]dec-3-yl)benzoic acid, TFA salt]: 218 nM. For `CC(C)Oc1ccc(-c2cc(F)c(F)cc2F)c(CN2CCC3(CC2)CN(c2ccc(C(=O)O)cc2)C(=O)O3)c1` [Example 4-16, 4-(2-Oxo-8-{[2′,4′,5′-trifluoro-4-(propan-2-yloxy)biphenyl-2-yl]methyl}-1-oxa-3,8-diazaspiro[4.5]dec-3-yl)benzoic acid, TFA salt], the IC50 was determined as 0.272 nM. The same measure for `O=C(O)c1ccc(N2CC3(CCN(Cc4cc(OC(F)(F)F)ccc4-c4ccc(F)c(F)c4F)CC3)OC2=O)cc1` [Example 4-17, 4-(2-Oxo-8-{[2′,3′,4′-trifluoro-4-(trifluoromethoxy)biphenyl-2-yl]methyl}-1-oxa-3,8-diazaspiro[4.5]dec-3-yl)benzoic acid, TFA salt]: 0.165 nM. The same measure for `CCOc1cc(CN2CCC3(CC2)CN(c2ccc(C(=O)O)c(OC)c2)C(=O)O3)c(-c2ccc(F)c(F)c2F)cc1C` [Example 4-18, 4-{8-[(4-Ethoxy-2′,3′,4′-trifluoro-5-methylbiphenyl-2-yl)methyl]-2-oxo-1-oxa-3,8-diazaspiro[4.5]dec-3-yl}-2-methoxybenzoic acid, TFA salt]: 0.228 nM. Next, `O=C(O)c1ccc(N2CC3(CCN(Cc4cc5c(cc4-c4cc(F)c(F)cc4F)CCC5)CC3)OC2=O)cc1` [Example 4-19, 4-(2-Oxo-8-{[6-(2,4,5-trifluorophenyl)-2,3-dihydro-1H-inden-5-yl]methyl}-1-oxa-3,8-diazaspiro[4.5]dec-3-yl)benzoic acid, TFA salt]: 0.243 nM; `CCOc1cc(CN2CCC3(CC2)CN(c2ccc(C(=O)O)cc2)C(=O)O3)c(-c2ccc(C(F)(F)F)nc2)cc1C` [Example 4-20, 4-(8-{5-Ethoxy-4-methyl-2-[6-(trifluoromethyl)pyridin-3-yl]benzyl}-2-oxo-1-oxa-3,8-diazaspiro[4.5]dec-3-yl)benzoic acid, TFA salt]: 0.632 nM; `CCOc1cc(CN2CCC3(CC2)CN(c2ccc(C(=O)O)cc2F)C(=O)O3)c(-c2ccc(F)c(F)c2F)cc1C` [Example 4-21, 4-{8-[(4-Ethoxy-2′,3′,4′-trifluoro-5-methylbiphenyl-2-yl)methyl]-2-oxo-1-oxa-3,8-diazaspiro[4.5]dec-3-yl}-3-fluorobenzoic acid, TFA salt]: 0.397 nM. `CCOc1cc(CN2CCC3(CC2)CN(c2ccc(C(=O)O)cc2Cl)C(=O)O3)c(-c2ccc(F)c(F)c2F)cc1C` [Example 4-22, 3-Chloro-4-{8-[(4-ethoxy-2′,3′,4′-trifluoro-5-methylbiphenyl-2-yl)methyl]-2-oxo-1-oxa-3,8-diazaspiro[4.5]dec-3-yl}benzoic acid, TFA salt] yielded a 50% inhibitory concentration (IC50) of 0.468 nM. Compound `Cc1ccc(-c2cc(C)c(Cl)cc2CN2CCC3(CC2)CN(c2ccc(C(=O)O)cc2)C(=O)O3)cn1` [Example 4-23, 4-{8-[5-Chloro-4-methyl-2-(6-methylpyridin-3-yl)benzyl]-2-oxo-1-oxa-3,8-diazaspiro[4.5]dec-3-yl}benzoic acid, TFA salt] came in with a half-maximal inhibitory concentration (IC50) of 2.3 nM. Compared with the last compound, the IC50 is about 4.9-fold higher. `Cc1cc(-c2cc(F)c(F)cc2F)c(CN2CCC3(CC2)CN(c2ccc(C(=O)O)cc2)C(=O)O3)cc1Cl` [Example 4-24, 4-{8-[(4-Chloro-2′,4′,5′-trifluoro-5-methylbiphenyl-2-yl)methyl]-2-oxo-1-oxa-3,8-diazaspiro[4.5]dec-3-yl}benzoic acid, TFA salt] came in with a half-inhibitory concentration (IC50) of 1.13 nM. Next, `Cc1cc(-c2ccc(F)nc2)c(CN2CCC3(CC2)CN(c2ccc(C(=O)O)cc2)C(=O)O3)cc1Cl` [Example 4-25, 4-{8-[5-Chloro-2-(6-fluoropyridin-3-yl)-4-methylbenzyl]-2-oxo-1-oxa-3,8-diazaspiro[4.5]dec-3-yl}benzoic acid, TFA salt]: 1.31 nM. Next, `Cc1cc(-c2ccc(C(F)(F)F)nc2)c(CN2CCC3(CC2)CN(c2ccc(C(=O)O)cc2)C(=O)O3)cc1Cl` [Example 4-26, 4-(8-{5-Chloro-4-methyl-2-[6-(trifluoromethyl)pyridin-3-yl]benzyl}-2-oxo-1-oxa-3,8-diazaspiro[4.5]dec-3-yl)benzoic acid, TFA salt]: 9.35 nM; `CCOc1ccc(-c2nccs2)c(CN2CCC3(CC2)CN(c2ccc(C(=O)O)cc2)C(=O)O3)c1` [Example 4-27, 4-{8-[5-Ethoxy-2-(1,3-thiazol-2-yl)benzyl]-2-oxo-1-oxa-3,8-diazaspiro[4.5]dec-3-yl}benzoic acid, TFA salt]: 1.5 nM. The same measure for `CCOc1cc(CN2CCC3(CC2)CN(c2ccc(C(=O)O)cc2)C(=O)O3)c(-n2cc(C)cn2)cc1C` [Example 4-28, 4-{8-[5-Ethoxy-4-methyl-2-(4-methyl-1H-pyrazol-1-yl)benzyl]-2-oxo-1-oxa-3,8-diazaspiro[4.5]dec-3-yl}benzoic acid, TFA salt]: 0.395 nM; for `Cc1cc(CN2CCC3(CC2)CN(c2ccc(C(=O)O)cc2)C(=O)O3)cc2c1OCC2(C)C` [Example 5-1, 4-{2-Oxo-8-[(3,3,7-trimethyl-2,3-dihydro-1-benzofuran-5-yl)methyl]-1-oxa-3,8-diazaspiro[4.5]dec-3-yl}benzoic acid, TFA salt]: 2.38 nM.

Turning to `CCOc1cc(CN2CCC3(CC2)CN(c2ccc(C(=O)O)cc2)C(=O)O3)cc2c(OC)cccc12` [Example 5-2, 4-{8-[(4-Ethoxy-8-methoxynaphthalen-2-yl)methyl]-2-oxo-1-oxa-3,8-diazaspiro[4.5]dec-3-yl}benzoic acid, TFA salt], the IC50 was 0.704 nM. Next, `CCOc1cc(CN2CCC3(CC2)CN(c2ccc(C(=O)O)cc2)C(=O)O3)cc2c(OCC)cccc12` [Example 5-3, 4-{8-[(4,8-Diethoxynaphthalen-2-yl)methyl]-2-oxo-1-oxa-3,8-diazaspiro[4.5]dec-3-yl}benzoic acid, TFA salt]: 0.98 nM.

With `CCOc1cc(C)nc2c(OCC)cc(CN3CCC4(CC3)CN(c3ccc(C(=O)O)cc3)C(=O)O4)cc12` [Example 5-4, 4-{8-[(4,8-Diethoxy-2-methylquinolin-6-yl)methyl]-2-oxo-1-oxa-3,8-diazaspiro[4.5]dec-3-yl}benzoic acid, TFA salt], the IC50 came out at 65.2 nM. The same measure for `CCOc1cc(CN2CCC3(CC2)CN(c2ccc(C(=O)O)cc2)C(=O)O3)cc2c(OC)cc(Cl)cc12` [Example 5-5, 4-{8-[(6-Chloro-4-ethoxy-8-methoxynaphthalen-2-yl)methyl]-2-oxo-1-oxa-3,8-diazaspiro[4.5]dec-3-yl}benzoic acid, TFA salt]: 0.65 nM; for `COc1cc(CN2CCC3(CC2)CN(c2ccc(C(=O)O)cc2)C(=O)O3)cc2c(OC)cccc12` [Example 5-6, 4-{8-[(4,8-Dimethoxynaphthalen-2-yl)methyl]-2-oxo-1-oxa-3,8-diazaspiro[4.5]dec-3-yl}benzoic acid, TFA salt]: 0.172 nM; for `CCOc1cc(CN2CCC3(CC2)CN(c2ccc(C(=O)O)cc2)C(=O)O3)cc2c(OC)ccc(Cl)c12` [Example 5-7, 4-{8-[(5-Chloro-4-ethoxy-8-methoxynaphthalen-2-yl)methyl]-2-oxo-1-oxa-3,8-diazaspiro[4.5]dec-3-yl}benzoic acid, TFA salt]: 0.233 nM. As for `CCOc1cc(CN2CCC3(CC2)CN(c2ccc(C(=O)O)cc2)C(=O)O3)cc2cnc(C(F)(F)F)cc12` [Example 5-8, 4-(8-{[5-Ethoxy-3-(trifluoromethyl)isoquinolin-7-yl]methyl}-2-oxo-1-oxa-3,8-diazaspiro[4.5]dec-3-yl)benzoic acid, TFA salt], the half-inhibitory concentration (IC50) turned out to be 0.424 nM. `CCOc1cc(CN2CCC3(CC2)CN(c2ccc(C(=O)O)cc2)C(=O)O3)cc2ccc(C(F)(F)F)nc12` [Example 5-9, 4-(8-{[8-Ethoxy-2-(trifluoromethyl)quinolin-6-yl]methyl}-2-oxo-1-oxa-3,8-diazaspiro[4.5]dec-3-yl)benzoic acid, TFA salt] gave an IC50 of 11.3 nM.
